Legend:
Anesthetized Dog = test: Cardiac electrophysiology in anesthetized dogs (refractory periods, conduction times, heart rate, blood pressure); format: in vivo; parameters: ACT (atrial conduction time), change / VCT (ventricular conduction time), change / BP, change: unit not given here; conditions: 5 mg/kg i.v.; for ACT (atrial conduction time), change / AERP (refractory period of the right atrium), change / VCT (ventricular conduction time), change / VERP (refractory period of the right ventricle), change: BCL = 300, Example 1 n = 3; for BP, change / HR, change: Example 1 n = 3
Protocol: The compounds of this invention display a Class III antiarrhythmic profile. The Class III antiarrhythmic activity was established in vitro and in vivo in accordance with the following standard test procedures. Mongrel dogs of both sexes weighing 12 to 18 kg were anesthetized with sodium pentobarbital (35 mg/kg i.v. supplemented with 5 mg/kg/h) and artificially ventilated with room air (minute volume: 200 mL/kg). The heart was exposed by a right thoractomy performed at the fifth intercostal space and suspended in a pericardial cradle. Epicardial electrodes for stimulation and recording were sutured to the free wall of the lower right atrium and near the base of the right ventricle. Each electrode set contained a linear array of electrodes consisting of 1 bipolar stimulating electrode and 2 bipolar recording electrodes embedded in a rigid acrylic matrix. The stimulating bipole was 7 mm from the proximal recording electrode, which in turn was 10 mm from the distal recording bipole. Each electrode array was oriented to be parallel to the epicardial fiber axis. […] Conduction times and refractory periods were measured during pacing at a cycle length of 300 msec. The dog heart was paced by a stimulator driving a constant current isolation unit. […] Diastolic threshold was determined before and after each trial. Refractory periods of the right atrium and right ventricle ([…]) were determined by introducing an extrastimulus (S2) every 8 paced beats (S1). The extrastimulus was followed by a 4-second rest interval during which no pacing occurred. Both S1 and S2 were of identical intensity (twice threshold) and duration (2 msec). […] This S1 -S2 interval was considered to define effective refractory period. Atrial and ventricular (ACT and VCT) conduction times were measured as the time interval between the 2 electrograms recorded at the proximal and distal sites of the recording electrode array. The time of activation for electrograms with predominantly biphasic complexes was taken as the moment when the trace crossed the zero reference line, and for triphasic complexes, as the peak of the major deflection. Animals received the test compound by i.v. injection. Drugs were administered cumulatively at the following dose levels: 1, 2.5, 5, 7.5, 10 mg/kg. Each dose was administered over a 3 minute period. Electrophysiologic testing was performed 15 minutes following the end of dosing. Every 30 minutes the dog received the next incremental dose. […] An increase in ERP that occurred without a significant decrease of CT was taken, by definition to indicate "in vivo" Class III antiarrhythmic activity.

Purkinje fiber = test: Cardiac electrophysiology in vitro, dog Purkinje fibers (action potential parameters); format: cell-based; parameters: unit not given here; conditions: 3 μM
Protocol: The compounds of this invention display a Class III antiarrhythmic profile. The Class III antiarrhythmic activity was established in vitro and in vivo in accordance with the following standard test procedures. Bundles of free-running Purkinje fibers with attached myocardium obtained from either ventricle of adult dog heart were pinned without stretching to the bottom of a 10 mL tissue chamber and continuously superfused with oxygenated Tyrode's solution at a flow rate of 5 mL/min. The composition of the Tyrode's solution was (mM): NaCl, 138; KCl 4; CaCl2, 2; MgCl2 0.5; NaHCO3, 24; dextrose, 5.5. The solution was aerated with 95% O2 -5% CO2 at 37° C. Bath temperature was maintained at 37±0.5° C. by circulating the pre-warmed superfusate through a thermostatically controlled water bath immediately prior to entering the tissue chamber. The preparations were stimulated through bipolar Teflon-coated silver wires, bared at the tips, placed on the endocardial surface of the attached myocardium, using a digital stimulator set to deliver constant current pulses 1.5-msec in duration at cycle lengths of 300 or 1000 msec. Stimulus strength was set at approximately 2×diastolic threshold, and adjusted as required throughout the experiment. All preparations were allowed to equilibrate in the tissue chamber for at least 1 hour before measurements were begun. Subsequently, a minimum of 60 minutes were allowed for equilibration with each drug-containing superfusate before post-drug measurements were made. Impalements were made at 6 to 10 sites throughout the preparation before and after drug exposure. Offset potentials were rechecked after each impalement. Glass microelectrodes filled with 3M KCl were coupled to high impedance negative capacitance electrometers and Ag/AgCl half-cells used as reference electrodes. The first derivative of the action potential upstroke (Vmax) was obtained using an analog differentiator circuit, coupled to a peak-hold circuit that retained the recorded value of Vmax for 30 to 70-msec. […] In addition, chart paper recordings of Vmax were obtained using the peak-hold device output. Fresh stock solutions of drug were prepared for each experiment. […] Action potential (AP) parameters measured included: diastolic take-off potential or activation voltage, (Vact); AP overshoot (Vos); AP duration measured as the time taken to repolarize to -20 mV (APD-20),-60 mV (APD-60), and -80 mV (APD-80); and maximal upstroke velocity (Vmax). An increase in APD-60 that occurred without a significant change in Vmax was taken, by definition, to indicate Class III antiarrhythmic activity "in vitro".

[1] = test system: Pigs (Durrock-Landrace cross); test: Coronary occlusion-reperfusion in anesthetized pigs (20 min LAD occlusion, then reperfusion; survival); format: in vivo, pig; conditions: 20 minutes before LAD occlusion
Protocol: Pigs (Durrock-Landrace cross) of either sex weighing 12 to 24 kg were anesthetized by administration of sodium pentobarbital. (35 mg/kg i.p. and supplemented with 5 mg/kg/hr. i.v.) and ventilated with room air following tracheotomy (minute volume: 200 mL/kg). The left femoral artery and vein were cannulated for the recording of blood pressure and for drug administration, respectively. Blood pressure and lead II EKG were recorded on a chart recorder.
The heart was exposed by a left thoracotomy performed at the fifth intercostal space. A silk ligature was placed beneath the left anterior descending coronary artery (LAD) about 1.5 cm from its origin and distal to the septal artery branch. The artery was occluded by lifting the vessel with the ligature and quickly placing a bull-dog clamp (3×12 mm padded jaws) over the artery. The clamp remained in place for a period of 20 minutes. Removal of the clamp produced a rapid reperfusion of the ischemic myocardium as evidenced by the return of normal color to the myocardium distal to the site of occlusion. Ectopic activity was monitored during occlusion and reperfusion by recording the lead II EKG at chart speeds of 5 to 25 mm/second. Animals were allowed to stabilize for at least 30 minutes prior to drug administration.
Pigs were randomized into groups receiving either vehicle or test drug at a given dose (1-5 mg/kg i.v.) 20 minutes before LAD occlusion. Animals surviving the period of occlusion were subsequently reperfused. No attempt was made to resuscitate animals experiencing ventricular fibrillation (VF) at any time following occlusion. In the absence of treatment, less than 30 percent of the animals survive the 20 minute period of occlusion, with a mean time to death onset of 8 to 12 minutes. Effective compounds either prevent death due to VF or prolong survival time.

[2] = dextro enantiomer; Taggart et al. 1985, McComb et al. 1985; cited from earlier work

Structure (SMILES) | ACT (atrial conduction time), change (Anesthetized Dog) | AERP (refractory period of the right atrium), change (Anesthetized Dog) | VCT (ventricular conduction time), change (Anesthetized Dog) | VERP (refractory period of the right ventricle), change (Anesthetized Dog) | BP, change (Anesthetized Dog) | HR, change (Anesthetized Dog) | APD-60 (AP duration, time to repolarize to -60 mV), change (Purkinje fiber; BCL = 300, Example 1 n = 2) | Vmax (maximal upstroke velocity), change (Purkinje fiber; BCL = 300, Example 1 n = 2) | APD-60 (AP duration, time to repolarize to -60 mV), change (Purkinje fiber; BCL = 1000, Example 1 n = 3) | Vmax (maximal upstroke velocity), change (Purkinje fiber; BCL = 1000, Example 1 n = 3) | Fraction of pigs surviving 20 min. occlusion ([1]; 2.5 mg/Kg i.v.) | Fraction of pigs surviving reperfusion ([1]; 2.5 mg/Kg i.v.) | Fraction of pigs surviving 20 min. occlusion ([1]; 5 mg/Kg i.v.) | Fraction of pigs surviving reperfusion ([1]; 5 mg/Kg i.v.) | selective Class III antiarrhythmic activity [2]
Cl.Cl.O=[N+]([O-])c1ccc(OCC(O)CN2CCN(c3ccccn3)CC2)cc1 (racemic) [Example 1, α-[(4-Nitrophenoxy)methyl]-4-(2-pyridinyl)-1-piperazineethanol Dihydrochloride] | 16 ± 1 | 69 ± 7 | -7 ± 9 | 25 ± 3 | -33 ± 9 | -33 ± 1 | 15 | -19 | 29 ± 6 | -8 ± 5 | 1/4 | 0/4 | 4/4 | 2/4 | 
CS(=O)(=O)Nc1ccc(OCC(O)CN2CCN(c3ccccn3)CC2)cc1 (centres unmarked) [Example 5, N-[4-[2-Hydroxy-3-[4-(2-pyridinyl)-1-piperazinyl]propoxy]phenyl]methanesulfonamide] | 6 | 56 | 3 | 13 | -25 | -15 | 30 | 7 | 50 | 14 |  |  |  |  | 
CS(=O)(=O)Nc1ccc(OCC(O)CN2CCN(c3ncccn3)CC2)cc1 (centres unmarked) [Example 4, N-[4-[2-Hydroxy-3-[4-(2-pyrimidinyl)-1-piperazinyl]-propoxy]phenyl]methanesulfonamide] | -4 | 24 | 0 | 13 | -16 | -14 | 16 | -12 | 33 | -17 |  |  |  |  | 
CC(C)NCC(O)c1ccc(NS(C)(=O)=O)cc1 (centres unmarked) [Sotalol, 4-(2-isopropylamino-1-hydroxyethyl)-methane-sulfonamide] |  |  |  |  |  |  |  |  |  |  |  |  |  |  | selective Class III antiarrhythmic activity

Source: US4994459A, “Aryloxypropane substituted piperazine derivatives with antiarrhythmic and antifibrillatory activity” (American Home Products Corporation, priority 1989, dated 1991)
